Experimental findings from patent US20080161288A1, “COMPOUNDS” (Pfizer Inc., priority 2006, published 2008) are described below.

Experiment [1] addresses T1, bovine beta-2 adrenoceptor (Bos taurus, UniProt Q28044).
T1 construct: expressed in transfected cells; host or cells: CHO cells
The experiment can be described thus: cAMP assay in CHO cells transfected with the bovine beta-2 adrenoceptor. The settings on record: cAMP (DiscoveRx Hit Hunter cAMP II) in CHO cells transfected with bovine beta-2 adrenoceptor, 30 minutes with compound, 0.5 mM IBMX. In kind it is cell-based. The procedure, abridged: (§1)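 Transfected CHO cells were preincubated 30 min with 0.5 mM IBMX in PBS. Compound (5×10^−12 to 10^−5 M) was then applied for 30 min at 37 °C, 5% CO2, followed by cAMP measurement with an enzyme-fragment complementation kit. Duplicates, EC50 from curve fitting.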

Experiment [2] addresses T2, porcine beta-2 adrenoceptor (Sus scrofa, UniProt Q28997).
T2 construct: expressed in transfected cells; host or cells: CHO cells
Put plainly: cAMP assay in CHO cells transfected with the porcine beta-2 adrenoceptor. In kind it is cell-based. The settings on record: cAMP (DiscoveRx Hit Hunter cAMP II) in CHO cells transfected with porcine beta-2 adrenoceptor, 30 minutes with compound, 0.5 mM IBMX. The procedure, abridged: as §1
(Changes in cAMP serve as a functional read-out for many G protein-coupled receptors.)

Each structure is given as a SMILES string.

T1 sequence (Q28044 whole entry): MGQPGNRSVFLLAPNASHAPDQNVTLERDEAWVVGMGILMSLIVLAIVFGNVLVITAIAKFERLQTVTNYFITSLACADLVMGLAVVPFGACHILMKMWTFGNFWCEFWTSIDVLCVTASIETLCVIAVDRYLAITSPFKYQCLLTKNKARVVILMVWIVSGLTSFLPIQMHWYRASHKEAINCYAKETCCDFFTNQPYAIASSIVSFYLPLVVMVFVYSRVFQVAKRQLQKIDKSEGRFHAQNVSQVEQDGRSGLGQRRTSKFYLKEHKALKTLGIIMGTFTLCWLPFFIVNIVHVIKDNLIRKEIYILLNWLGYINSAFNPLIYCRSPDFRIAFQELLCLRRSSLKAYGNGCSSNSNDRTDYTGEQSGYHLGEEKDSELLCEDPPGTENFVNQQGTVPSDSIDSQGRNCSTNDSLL
T2 sequence (Q28997 whole entry): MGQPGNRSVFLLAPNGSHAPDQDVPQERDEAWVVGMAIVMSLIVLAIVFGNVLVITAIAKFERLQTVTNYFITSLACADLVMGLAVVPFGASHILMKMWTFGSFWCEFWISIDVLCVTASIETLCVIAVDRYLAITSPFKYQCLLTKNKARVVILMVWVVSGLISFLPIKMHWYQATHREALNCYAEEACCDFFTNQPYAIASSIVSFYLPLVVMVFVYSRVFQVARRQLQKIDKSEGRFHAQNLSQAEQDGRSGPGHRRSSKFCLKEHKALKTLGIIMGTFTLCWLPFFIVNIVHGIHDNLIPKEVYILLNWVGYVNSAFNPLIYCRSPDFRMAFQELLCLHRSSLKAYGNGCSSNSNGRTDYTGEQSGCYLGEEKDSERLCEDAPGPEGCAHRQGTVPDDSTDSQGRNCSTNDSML

Turning to `C[C@@H](CCc1cccc(NC(=O)C(F)(F)F)c1)N[C@@H]1CCn2c(=O)[nH]c3cccc(c32)[C@H]1O` (single isomer, unassigned) [Example 57, 2,2,2-Trifluoro-N-{3-[3-{[7-hydroxy-2-oxo-1,2,4,5,6,7-hexahydroimidazo[4,5,1-jk][1]benzazepin-6-yl]amino}butyl]phenyl}acetamide], the EC50 in experiment [1] came to 6.1 nM; in experiment [2] it was 7.1 nM.
Turning to `CC(CCc1ccc(O)c(F)c1)NC1CCn2c(=O)[nH]c3cccc(c32)C1O` (single isomer, unassigned) [Example 58, 6-{[3-(3-Fluoro-4-hydroxyphenyl)-1-methylpropyl]amino}-7-hydroxy-4,5,6,7-tetrahydroimidazo[4,5,1-jk][1]benzazepin-2(1H)-one], the EC50 in experiment [1] was 1.1 nM; in experiment [2] it was 2.4 nM.
On the same counts, the results for `CC(CCc1ccc(NC(=O)C(F)(F)F)cc1)NC1CCn2c(=O)[nH]c3cccc(c32)C1O` (single isomer, unassigned) [Example 59] are 10.4 nM and 12.1 nM.
Consider `CC(CCc1ccc(O)c(C(F)(F)F)c1)NC1CCn2c(=O)[nH]c3cccc(c32)C1O` (single isomer, unassigned) [Example 60, 7-Hydroxy-6-({3-[4-hydroxy-3-(trifluoromethyl)phenyl]-1-methylpropyl}amino)-4,5,6,7-tetrahydroimidazo[4,5,1-jk][1]benzazepin-2(1H)-one], for which the EC50 in experiment [1] stood at 10.5 nM; in experiment [2] it was 15.9 nM.
On the same counts, the results for `CCC(=O)Nc1cccc(CCC(C)NC2CCn3c(=O)[nH]c4cccc(c43)C2O)c1` (single isomer, unassigned) [Example 61, N-{3-[3-{[7-Hydroxy-2-oxo-1,2,4,5,6,7-hexahydroimidazo[4,5,1-jk][1]benzazepin-6-yl]amino}butyl]phenyl}propanamide] are 12 nM and 12.5 nM.
For `CNC(=O)c1cccc(CCC(C)NC2CCn3c(=O)[nH]c4cccc(c43)C2O)c1` (single isomer, unassigned) [Example 62, 3-[3-{[7-Hydroxy-2-oxo-1,2,4,5,6,7-hexahydroimidazo[4,5,1-jk][1]benzazepin-6-yl]amino}butyl]-N-methylbenzamide], the values for the EC50 in experiment [1] and in experiment [2] were 24.3 nM and 18.9 nM, respectively.
Turning to `CC(=O)Nc1ccccc1CCC(C)NC1CCn2c(=O)[nH]c3cccc(c32)C1O` (single isomer, unassigned) [Example 63, N-{2-[3-{[7-Hydroxy-2-oxo-1,2,4,5,6,7-hexahydroimidazo[4,5,1-jk][1]benzazepin-6-yl]amino}butyl]phenyl}acetamide], the EC50 was 39.2 nM in experiment [1] and 40.8 nM in experiment [2].
Take `CC(CCc1ccc(C(=O)NC2CC2)cc1)NC1CCn2c(=O)[nH]c3cccc(c32)C1O` (single isomer, unassigned) [Example 64, N-Cyclopropyl-4-[3-{[7-hydroxy-2-oxo-1,2,4,5,6,7-hexahydroimidazo[4,5,1-jk][1]benzazepin-6-yl]amino}butyl]benzamide]: the EC50 in experiment [1] is 46.4 nM; in experiment [2] it was 42.9 nM.
With `CC(CCc1cccc(NS(C)(=O)=O)c1)NC1CCn2c(=O)[nH]c3cccc(c32)C1O` (single isomer, unassigned) [Example 65], the EC50 amounted to 74.7 nM in experiment [1] and 31.5 nM in experiment [2].
In the same order, the values of `CC(CCc1cccc(C(N)=O)c1)NC1CCn2c(=O)[nH]c3cccc(c32)C1O` (single isomer, unassigned) [Example 66, 3-[3-{[7-Hydroxy-2-oxo-1,2,4,5,6,7-hexahydroimidazo[4,5,1-jk][1]benzazepin-6-yl]amino}butyl]benzamide] are 137 nM and 141 nM.
As for `CC(CCc1ccc(C(=O)O)cc1)NC1CCn2c(=O)[nH]c3cccc(c32)C1O` (single isomer, unassigned) [Example 68, 4-[3-{[7-Hydroxy-2-oxo-1,2,4,5,6,7-hexahydroimidazo[4,5,1-jk][1]benzazepin-6-yl]amino}butyl]benzoic acid], the EC50 turned out to be 198 nM in experiment [1] and 128 nM in experiment [2].
In the same order, the values of `CC(CCc1ccc(NS(=O)(=O)C(F)(F)F)cc1)NC1CCn2c(=O)[nH]c3cccc(c32)C1O` (single isomer, unassigned) [Example 69, 1,1,1-Trifluoro-N-{4-[3-{[7-hydroxy-2-oxo-1,2,4,5,6,7-hexahydroimidazo[4,5,1-jk][1]benzazepin-6-yl]amino}butyl]phenyl}methanesulfonamide] are 234 nM and 50.3 nM.
Take `COC(=O)c1ccc(CC[C@@H](C)N[C@@H]2CCn3c(=O)[nH]c4cccc(c43)[C@H]2O)cc1` (single isomer, unassigned) [Example 70, Methyl 4-[3-{[7-hydroxy-2-oxo-1,2,4,5,6,7-hexahydroimidazo[4,5,1-jk][1]benzazepin-6-yl]amino}butyl]benzoate]: the values for the concentration giving a half-maximal response (EC50) in experiment [1] and in experiment [2] were 8.2 nM and 6.2 nM, respectively.
In the same order, the values of `C[C@H](CCc1ccccc1O)N[C@@H]1CCn2c(=O)[nH]c3cccc(c32)[C@H]1O` [Example 6f, 7-Hydroxy-6-{[3-(2-hydroxyphenyl)-1-methylpropyl]amino}-4,5,6,7-tetrahydroimidazo[4,5,1-jk][1]benzazepin-2(1H)-one] are 1 nM and 1.9 nM.
In the same order, the values of `CC(CCc1ccc2c(c1)OCO2)NC1CCn2c(=O)[nH]c3cccc(c32)C1O` (stereo not shown) [Example 12, 6-{[3-(1,3-Benzodioxol-5-yl)-1-methylpropyl]amino}-7-hydroxy-4,5,6,7-tetrahydroimidazo[4,5,1-jk][1]benzazepin-2(1H)-one] are 23.1 nM and 11.7 nM.
In the same order, the values of `Cc1ccccc1CCC(C)NC1CCn2c(=O)[nH]c3cccc(c32)C1O` (stereo not shown) [Example 13a, 7-hydroxy-6-{[1-Methyl-3-(2-methylphenyl)propyl]amino}-4,5,6,7-tetrahydroimidazo[4,5,1-jk][1]benzazepin-2(1H)-one] are 4.3 nM and 3.9 nM.
`Cc1cc(CCC(C)NC2CCn3c(=O)[nH]c4cccc(c43)C2O)cc(C)c1O` (stereo not shown) [Example 15, 7-Hydroxy-6-{[3-(4-hydroxy-3,5-dimethylphenyl)-1-methylpropyl]amino}-4,5,6,7-tetrahydroimidazo[4,5,1-jk][1]benzazepin-2(1H)-one]: the results for the EC50 in experiment [1] and in experiment [2] were 221 nM and 48.7 nM, respectively.
In the same order, the values of `COc1ccc(CCC(C)NC2CCn3c(=O)[nH]c4cccc(c43)C2O)cc1` (stereo not shown) [Example 34, 7-Hydroxy-6-{[3-(4-methoxyphenyl)-1-methylpropyl]amino}-4,5,6,7-tetrahydroimidazo[4,5,1-jk][1]benzazepin-2(1H)-one] are 20.3 nM and 30.4 nM.
Take `CC(CCc1ccccc1OC(C)C)NC1CCn2c(=O)[nH]c3cccc(c32)C1O` (stereo not shown) [Example 35, 7-Hydroxy-6-{[3-(2-isopropoxyphenyl)-1-methylpropyl]amino}-4,5,6,7-tetrahydroimidazo[4,5,1-jk][1]benzazepin-2(1H)-one]: the figures for the EC50 in experiment [1] and in experiment [2] were 7.3 nM and 1.8 nM, respectively.
In the same order, the values of `CC(C=Cc1cccc(O)c1)NC1CCn2c(=O)[nH]c3cccc(c32)C1O` (stereo not shown) [Example 41, 7-Hydroxy-6-{[3-(3-hydroxyphenyl)-1-methylprop-2-en-1-yl]amino}-4,5,6,7-tetrahydroimidazo[4,5,1-jk][1]benzazepin-2(1H)-one] are 13.3 nM and 6.6 nM.

As a reminder, the EC50 is the concentration that produces a half-maximal response.
